From PMC12841663, “Antiprotozoal Potential of Cultivated Geranium macrorrhizum Against Giardia duodenalis, Trichomonas gallinae and Leishmania infantum” (International Journal of Molecular Sciences, 2026)
≈ marks a conversion by molar mass, not a printed value. Entries after “also recorded” stand apart in the source; their conditions may differ.

Key:
[1] = test system: G. duodenalis trophozoites; assay: Anti-Giardia activity assay (MTT viability); type: cell-based; details: pure compounds
Protocol: Anti-Giardia (AG) activity assays were conducted on G. duodenalis trophozoites from the ATCC® 30957 strain (assemblage A), using flat-bottom microwell plates in quadruplicate. […] Incubation was carried out for 24 h at 37 °C. EOs and pure compounds were solved in DMSO (Sigma, Madrid, Spain) (<1% final concentration). […] Trophozoites/promastigotes viability was assessed using the modified MTT colorimetric assay, as described previously in the literature, with results further validated by microscopic examination. The plate was analyzed in a spectrophotometer at a wavelength of 570 nm. The percentage of antiparasitic activity was calculated as growth inhibition, using the following formula: % AT = 100 - [(Ap - Ab) ÷ (Ac - Ab)] × 100, where Ap is the absorbance of the tested product, Ab the absorbance of the blank and Ac the absorbance of the control wells (culture without treatment). […] Metronidazole (Acros Organics, Madrid, Spain) served as a reference compound for anti-Giardia activity and Anti-Trichomonas activity and amphotericin B for anti-Leishmania activity. Data was analyzed using STATGRAPHICS Centurion XIX ([…].com) (Statgraphics Technologies, Inc., The Plains, VA, USA). The mammalian cells and trophozoites viability were tested with each compound in a dose-response experiment to calculate their relative potency (CC50 or IC50 value, respectively).

[2] = Cytotoxicity of pure compounds on Vero cells (MTT); type: cell-based; details: African green monkey
Protocol: African green monkey kidney cells (Vero cells) were maintained in Dulbecco’s modified Eagle’s minimal essential medium (DMEM) (Thermo Fisher Scientific, Waltham, MA, USA) supplemented with 10% FBS and 1% Pen-Strep at 37 °C under a humidified atmosphere of 5% CO2/95% air.
Cells seeded in 96-well flat-bottom microplates with 100 μL medium per well (initial densities 10^4 cells per well) were exposed for 48 h to serial dilutions (100, 75, 50, 25, 10 and 1 µg/mL) of the tested compounds in DMSO (<1% final concentration). Cell viability was analyzed by the MTT colorimetric assay method, and the purple-colored formazan precipitate was dissolved with 100 μL of DMSO [23].
Data was analyzed using STATGRAPHICS Centurion XIX (https://www.statgraphics.com) (Statgraphics Technologies, Inc., The Plains, VA, USA). The mammalian cells and trophozoites viability were tested with each compound in a dose–response experiment to calculate their relative potency (CC50 or IC50 value, respectively). IC50 (μg/mL) expresses the dose of EOs, extracts or pure compounds needed to produce 50% mortality of trophozoites, while CC50 (μg/mL) expresses the dose of compounds necessary to produce 50% mortality of Vero cells.

[3] = test system: G. duodenalis trophozoites; assay: Morphological evaluation by light microscopy (Diff-Quik), G. duodenalis; type: cell-based, Giardia duodenalis; details: germacrone 100 µg/mL, metronidazole 100 µg/mL; 0.5 and 48 h; control DMSO 1%
Protocol: Each well contained 435 μL of culture medium and 15 μL of the test or control compounds at the above-mentioned concentrations. The chamber included: two wells for growth control (0.5 h, 48 h), two for germacrone (0.5 h, 48 h), and two for metronidazole (0.5 h, 48 h). Incubation was performed at 37 °C. At each time point, the medium was removed, wells were dried, fixed, and stained with Diff-Quik. Morphological changes were analyzed using light microscopy. Experiments were performed as independent biological replicates on different plates, and one Diff-Quik stained smear was obtained per condition and time point per biological replicate. For morphometric analysis, a total of 30 trophozoites per condition and time point were measured across the independent biological replicates and were selected by consecutive sampling during a predefined serpentine (zig-zag) scan across the preparation. Up to two eligible trophozoites per field (intact, well-focused and non-overlapping) were measured in sequential fields until n = 30 was reached, avoiding subjective selection of “representative” cells. Overlapping, partially visible, out-of-focus, edge-of-field, or debris-obscured trophozoites were excluded a priori. Trophozoites were photographed using a researcher's mobile phone mounted to the microscope ocular. Calibration was performed at the same magnification using a stage micrometre and applied in ImageJ v. 1.54d. One Diff-Quik stained smear was obtained per condition/time point per biological replicate Cell length, cell width, cell surface, nuclear length, nuclear width, axoneme (only Giardia), and length of axostyle (only T. gallinae) were measured with ImageJ software, and the data were recorded in an Excel database for statistical analysis. The Shapiro-Wilk test was used to assess the normality of the morphological variables. When data followed a normal distribution, Student's t-test was applied; otherwise, non-parametric tests, such as the Mann-Whitney U test, was used. Values of p < 0.05 were considered significant. For the morphological analysis, the mean, standard deviation, median, and interquartile range were calculated using SPSS version 20 (IBM Corp., Armonk, NY, USA).

[4] = test system: T. gallinae trophozoites; assay: Morphological evaluation by light microscopy (Diff-Quik), T. gallinae; type: cell-based, Trichomonas gallinae; details: germacrone 100 µg/mL, metronidazole 10 µg/mL; 0.5 and 48 h; control DMSO 1%
Text: At each time point, quadruplicates were assigned per condition: growth control, germacrone, and the corresponding positive control (metronidazole or amphotericin B). For microscopy, quadruplicate wells corresponding to the same condition/time point were pooled prior to centrifugation to obtain sufficient biomass and a representative pellet for smear preparation. Pooled samples per condition/time point were centrifuged, resuspended in FBS and spread onto microscope slides. Once dried, samples were fixed and stained with Diff-Quik (Medion Diagnostic AG, […], Switzerland) following the manufacturer's instructions. Additionally, three wells per condition (triplicates) were used for the MTT assay, with absorbance measured by spectrophotometry after 48 h. Morphological changes were analyzed using light microscopy. Experiments were performed as independent biological replicates on different plates, and one Diff-Quik stained smear was obtained per condition and time point per biological replicate. For morphometric analysis, a total of 30 trophozoites per condition and time point were measured across the independent biological replicates and were selected by consecutive sampling during a predefined serpentine (zig-zag) scan across the preparation. Up to two eligible trophozoites per field (intact, well-focused and non-overlapping) were measured in sequential fields until n = 30 was reached, avoiding subjective selection of “representative” cells. Overlapping, partially visible, out-of-focus, edge-of-field, or debris-obscured trophozoites were excluded a priori. Trophozoites were photographed using a researcher's mobile phone mounted to the microscope ocular. Calibration was performed at the same magnification using a stage micrometre and applied in ImageJ v. 1.54d. One Diff-Quik stained smear was obtained per condition/time point per biological replicate Cell length, cell width, cell surface, nuclear length, nuclear width, axoneme (only Giardia), and length of axostyle (only T. gallinae) were measured with ImageJ software, and the data were recorded in an Excel database for statistical analysis. The Shapiro-Wilk test was used to assess the normality of the morphological variables. When data followed a normal distribution, Student's t-test was applied; otherwise, non-parametric tests, such as the Mann-Whitney U test, was used. Values of p < 0.05 were considered significant. For the morphological analysis, the mean, standard deviation, median, and interquartile range were calculated using SPSS version 20 (IBM Corp., Armonk, NY, USA).

[5] = test system: T. gallinae trophozoites; design: method as in PMID 36157195; details: cited from earlier work

IC50 [1]: 4.4 mg/L (≈ 25.7 µM)
SMILES: Cc1ncc([N+](=O)[O-])n1CCO [Met, metronidazole, reference compound]
CC50 at 48 h [2]: > 100 mg/L | axoneme length vs control [3]: decreased at 0.5 h; also recorded: continued to decrease | cell length vs control [3]: significant reductions at 30 min | cell surface area vs control [3]: reduction in cell surface area relative to the control within 0.5 h | cell width vs control [3]: decrease in cell width at 0.5 h | nuclear length (left and right) vs control [3]: No effects | nuclear width vs control [3]: reduction at 0.5 h, followed by an increase at 48 h | axostyle length vs control [4]: decreased at 0.5 h; also recorded: undetectable in most metronidazole-treated trophozoites by 48 h | cell length vs control [4]: initial increase at 0.5 h, followed by a reduction at 48 h | cell surface area vs control [4]: significant reduction only at 48 h | nuclear length vs control [4]: decreased with metronidazole | nuclear width vs control [4]: diminished at 0.5 h; also recorded: further decreased | T. gallinae IC50 [5]: 1.0 (0.8–1.1) [23] µg/mL
